Where two headings read alike, the source gives them in different places.
Test: Single oral dose human plasma pharmacokinetics of D, DA and DOH after Cogni.Q
Assay type: in vivo
Details: human, plasma
Text: Ten healthy male and 10 female subjects were recruited by public announcement in Amarillo, TX, from January 2013 to April 2013 (see Fig. 1 CONSORT diagram). The sample size for each gender was chosen without power calculation due to the lack of prior knowledge of PK parameter variance in humans. After receiving informed consent verbally and in writing, the health status of each candidate was confirmed by health questionnaire, plasma biochemistry (hepatic and renal functions), complete blood cell count (CBC), and a physical examination by a participating academic physician. Subjects with diabetes, or pregnant, perinatal and breastfeeding women were excluded. For the 48 hours preceding study visit until the final blood draw, all subjects were instructed to avoid taking any prescription or nonprescription drugs, vitamins, and herbal/dietary supplements. Each subject was compensated for participating in the study per TTUHSC IRB approved rate.
Eligible subjects arrived at our clinical facility at 0700 (7:00 am) on the test day after a fast beginning at 2200 (10:00 pm) the previous night. After a brief review of vital signs, the nurse placed an intravenous (IV) line with saline drip in one arm of each subject. A baseline pre-dose (hour 0) blood sample was drawn through the IV line; after that subjects swallowed four Cogni.Q vegicaps with 240 mL of water at hour 0 under direct supervision. Subjects stayed at the clinical facility in their room for the next 12 hours, returning at 24 and 48 hours. Blood was drawn at baseline (hour 0) and at 0.5, 1, 2, 3, 4, 6, 8, 12, 24 and 48 hours after dosing into Vacutainer Blood Collection Tube (Becton-Dickinson, Franklin Lakes, NJ. Product Number: 367874, Sodium heparin was used as anti-coagulant). Water was allowed as desired except for within the first hour after Cogni.Q consumption. All subjects received standardized meals at post-dose hours 4.5 and 9.5 but no food was allowed for at least the first 4 hours post-dose.
Plasma was prepared by centrifuging the heparinized blood at 1000 g for 15 minutes at room temperature. Urine samples (40mL) were collected within time spans of 0–4, 4–8, 8–12 and 12–24 hours (total volume of urine was recorded). All plasma and urine samples were put on dry ice immediately and then stored at -80°C freezer until analysis.
Plasma samples were extracted with a validated solid supported liquid extraction (SLE) method facilitated with a positive pressure manifold (Biotage, Charlotte, NC). Briefly, 100 μL of plasma sample was spiked with 5 μL of 10 ng/μL prednisolone (IS), diluted with 200 μL of LC-MS grade water, mixed and loaded onto ISOLUTE SLE+ 400 μL Array Well cartridges (Biotage, Charlotte, NC). A pulse of minimum positive pressure was applied to facilitate the samples absorption into the cartridges. After the samples were allowed to absorb for 5 min, the compounds were eluted with 2×500 μL tert-butyl methyl ether. The eluent was dried in a Speedvac and the resulting residue was reconstituted in 50 μL of methanol for UHPLC-MS/MS analysis.
Eight-point calibration curves were constructed for D, DA and DOH, at concentrations of 0.1, 0.5, 1, 5, 10, 20, 50 and 100 μg/L for D and DA, and at concentrations of 1, 5, 10, 50, 100, 200, 500 and 1000 μg/L for DOH, respectively. The linear range was 0.1–100 μg/L (0.3–300 nmol/L), 0.1–100 μg/L (0.3–300 nmol/L) and 1–1000 μg/L (4–4000 nmol/L) for D, DA and DOH, respectively. The inter- and intra-assay CV were lower than 6.5% and the accuracy was between 90–105%. Calibration curve was run for each batch of samples analyzed. The mean calibration curve correlation coefficient (r) for D, DA and DOH was 0.999, 0.999 and 0.998, respectively (data from 7–10 calibration curves). In addition, 70% of the plasma samples were extracted and analyzed twice, the data from two replicate analyses were nearly identical and combined for final data analyses and presentation. […]

CC1(C)Oc2cc3oc(=O)ccc3cc2C[C@@H]1O [DOH, decursinol]
half-life (oral, 4 Cogni.Q vegicaps, subject S9 (158 lb), read-out: Terminal t1/2, h (converted)): 7.7 h
Tmax (oral, 4 Cogni.Q vegicaps, subject S9 (158 lb), read-out: Tmax): 3 h
AUC(0-t) (oral, 4 Cogni.Q vegicaps, subject S10 (185 lb), read-out: AUC0-48h): 17400 nmol·h/L
Cmax (oral, 4 Cogni.Q vegicaps, subject S10 (185 lb), read-out: Cmax): 1610 nM
half-life (oral, 4 Cogni.Q vegicaps, subject S10 (185 lb), read-out: Terminal t1/2, h (converted)): 8.8 h
Tmax (oral, 4 Cogni.Q vegicaps, subject S10 (185 lb), read-out: Tmax): 2 h
AUC(0-t) (oral, 4 Cogni.Q vegicaps, subject S11 (178 lb), read-out: AUC0-48h): 37300 nmol·h/L
Cmax (oral, 4 Cogni.Q vegicaps, subject S11 (178 lb), read-out: Cmax): 3420 nM
half-life (oral, 4 Cogni.Q vegicaps, subject S11 (178 lb), read-out: Terminal t1/2, h (converted)): 5 h
Tmax (oral, 4 Cogni.Q vegicaps, subject S11 (178 lb), read-out: Tmax): 2 h
AUC(0-t) (oral, 4 Cogni.Q vegicaps, subject S12 (169 lb), read-out: AUC0-48h): 29100 nmol·h/L
Cmax (oral, 4 Cogni.Q vegicaps, subject S12 (169 lb), read-out: Cmax): 2590 nM
half-life (oral, 4 Cogni.Q vegicaps, subject S12 (169 lb), read-out: Terminal t1/2, h (converted)): 7.9 h
Tmax (oral, 4 Cogni.Q vegicaps, subject S12 (169 lb), read-out: Tmax): 4 h
AUC(0-t) (oral, 4 Cogni.Q vegicaps, subject S13 (192 lb), read-out: AUC0-48h): 26100 nmol·h/L
Cmax (oral, 4 Cogni.Q vegicaps, subject S13 (192 lb), read-out: Cmax): 2420 nM
half-life (oral, 4 Cogni.Q vegicaps, subject S13 (192 lb), read-out: Terminal t1/2, h (converted)): 6 h
Tmax (oral, 4 Cogni.Q vegicaps, subject S13 (192 lb), read-out: Tmax): 2 h
AUC(0-t) (oral, 4 Cogni.Q vegicaps, subject S14 (200 lb), read-out: AUC0-48h): 25700 nmol·h/L
Cmax (oral, 4 Cogni.Q vegicaps, subject S14 (200 lb), read-out: Cmax): 3340 nM
half-life (oral, 4 Cogni.Q vegicaps, subject S14 (200 lb), read-out: Terminal t1/2, h (converted)): 5.3 h
Tmax (oral, 4 Cogni.Q vegicaps, subject S14 (200 lb), read-out: Tmax): 2 h
AUC(0-t) (oral, 4 Cogni.Q vegicaps, subject S15 (177 lb), read-out: AUC0-48h): 26100 nmol·h/L
Cmax (oral, 4 Cogni.Q vegicaps, subject S15 (177 lb), read-out: Cmax): 4020 nM
half-life (oral, 4 Cogni.Q vegicaps, subject S15 (177 lb), read-out: Terminal t1/2, h (converted)): 4.5 h
Tmax (oral, 4 Cogni.Q vegicaps, subject S15 (177 lb), read-out: Tmax): 1 h
Tmax (oral, 4 Cogni.Q vegicaps, subject S16 (175 lb), read-out: Tmax): 2 h
AUC(0-t) (oral, 4 Cogni.Q vegicaps, subject S17 (147 lb), read-out: AUC0-48h): 46700 nmol·h/L
Cmax (oral, 4 Cogni.Q vegicaps, subject S17 (147 lb), read-out: Cmax): 3740 nM
half-life (oral, 4 Cogni.Q vegicaps, subject S17 (147 lb), read-out: Terminal t1/2, h (converted)): 10.2 h
Tmax (oral, 4 Cogni.Q vegicaps, subject S17 (147 lb), read-out: Tmax): 2 h
half-life (oral, 4 Cogni.Q vegicaps, subject S18 (180 lb), outlier, excluded from means, read-out: Terminal t1/2, h (converted)): 16 h
AUC(0-t) (oral, 4 Cogni.Q vegicaps, subject S18 (180 lb), read-out: AUC0-48h): 16500 nmol·h/L
Cmax (oral, 4 Cogni.Q vegicaps, subject S18 (180 lb), read-out: Cmax): 1160 nM
Tmax (oral, 4 Cogni.Q vegicaps, subject S18 (180 lb), read-out: Tmax): 3 h
AUC(0-t) (oral, 4 Cogni.Q vegicaps, subject S19 (130 lb), read-out: AUC0-48h): 21400 nmol·h/L
Cmax (oral, 4 Cogni.Q vegicaps, subject S19 (130 lb), read-out: Cmax): 2270 nM
half-life (oral, 4 Cogni.Q vegicaps, subject S19 (130 lb), read-out: Terminal t1/2, h (converted)): 6.6 h
Tmax (oral, 4 Cogni.Q vegicaps, subject S19 (130 lb), read-out: Tmax): 6 h
half-life (oral, subject S16 (175 lb), outlier, excluded from means, read-out: Terminal t1/2, h (converted)): 15 h
AUC(0-t) (oral, subject S16 (175 lb), read-out: AUC0-48h): 16300 nmol·h/L
Cmax (oral, subject S16 (175 lb), read-out: Cmax): 1800 nM
AUC(0-t) (oral, subject S20 (200 lb), read-out: AUC0-48h): 17900 nmol·h/L
Cmax (oral, subject S20 (200 lb), read-out: Cmax): 1330 nM
half-life (oral, subject S20 (200 lb), read-out: Terminal t1/2, h (converted)): 9.6 h
Tmax (oral, subject S20 (200 lb), read-out: Tmax): 2 h
AUC(0-t) (male, oral, 4 Cogni.Q vegicaps, Men n=10 (S1 Table), read-out: AUC0-48h, Mean): 22500 nmol·h/L
Cmax (male, oral, 4 Cogni.Q vegicaps, Men n=10 (S1 Table), read-out: Cmax, nM, Mean): 2350 nM
Tmax (male, oral, 4 Cogni.Q vegicaps, Men n=10 (S1 Table), read-out: Tmax, h, Mean): 2.4 h
half-life (male, oral, Men, outliers excluded (S1 Table), read-out: Terminal t1/2, h, Mean (converted)): 6.6 h
AUC(0-t) (male, po, Men N = 10, single oral dose Cogni.Q, read-out: AUC0–48h, h.nmol/L Mean (SD)): 22500 nmol·h/L
Cmax (male, po, Men N = 10, single oral dose Cogni.Q, read-out: Cmax, nmol/L, Mean (SD)): 2350 nM
Tmax (male, po, Men N = 10, single oral dose Cogni.Q, read-out: Tmax, h, Mean (SD)): 2.4 h
half-life (male, po, Men, outlier subjects excluded, single oral dose Cogni.Q, read-out: T1/2, h, terminal Mean (SD) (converted)): 6.6 h

From article PMC4335020, “Single Oral Dose Pharmacokinetics of Decursin and Decursinol Angelate in Healthy Adult Men and Women” (PLoS ONE, 2015)
